Here are results for 22 molecules from US20110040088A1, “FUSED HETEROCYCLIC COMPOUNDS” (priority 2003, published 2011).

Like-named read-outs stand apart in the source and are kept apart here.

In assay [1] the target is human recombinant 5-HT2B receptor (Homo sapiens, UniProt P41595). The assay is described as follows: 5-HT2B receptor radioligand binding ([3H]mesulergine, CHO membranes).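 Note: competitive displacement binding on membranes of CHO cells stably expressing the receptor.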
Description: (§1) Affinity for 5HT2 Receptor Binding Sites
(§2) Receptor binding was performed using the human recombinant 5-HT2A (GB: X57830), 5-HT2B (GB: Z36748) and 5-HT2c (GB: M81778) receptors. The affinity of the compounds for the 3 different human 5-HT2 receptor subtypes was evaluated by competitive radioligand binding assays using [^3H]ketanserin (h5-HT2A) or [^3H]mesulergine (h5-HT2B and h5-HT2c). The assays were performed on membranes prepared from NIH3T3 stably transfected with h5-HT2A or CHO stably transfected with h5-HT2B and h5-HT2C.
Assay [2] has as its target T1, human recombinant 5-HT2C receptor (Homo sapiens, UniProt P28335).
T1 sequence (P28335 33-458): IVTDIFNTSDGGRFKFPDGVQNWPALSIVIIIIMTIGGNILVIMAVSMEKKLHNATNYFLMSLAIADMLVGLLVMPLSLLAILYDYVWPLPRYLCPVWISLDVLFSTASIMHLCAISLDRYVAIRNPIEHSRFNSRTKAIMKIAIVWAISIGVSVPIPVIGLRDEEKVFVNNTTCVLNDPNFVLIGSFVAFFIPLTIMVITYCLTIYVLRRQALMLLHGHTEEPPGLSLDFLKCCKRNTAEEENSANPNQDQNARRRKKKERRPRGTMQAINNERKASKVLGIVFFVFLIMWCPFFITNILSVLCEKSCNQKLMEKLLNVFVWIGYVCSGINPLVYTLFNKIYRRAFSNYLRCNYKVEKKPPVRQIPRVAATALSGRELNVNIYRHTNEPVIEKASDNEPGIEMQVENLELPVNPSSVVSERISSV
The assay is described as follows: 5-HT2C receptor radioligand binding ([3H]mesulergine, CHO membranes).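 Note: competitive displacement of the tritiated ligand, using membranes from CHO cells stably transfected with the human receptor.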
Description: as §1, §2

In a further assay the target is 5-HT2A receptor (UniProt P28223). The assay is described as follows: 5-HT2A receptor radioligand binding ([3H]ketanserin).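 Note: competitive displacement binding on membranes, either from rat cerebral cortex or from NIH3T3 cells stably expressing human 5-HT2A.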 The settings on record: read-out: Ki 5-HT2A, table does not say whether rat cortex or human recombinant (NIH3T3) receptor.
A further assay addresses T2, rat 5-HT7a receptor (Rattus norvegicus, UniProt P32305).
T2 construct: expressed in transfected cells
Description: 5-HT7 receptor radioligand binding ([3H]5-CT, membranes of transfected HEK-293 cells). The note with it: rat 5-HT7a in HEK-293 membranes, 1 nM [3H]5-CT.

The mark [3] stands for this setting: read-out: Ki 5-HT2C, h5-HT2C in CHO membranes, [3H]mesulergine.

Sequence of human recombinant 5-HT2B receptor (P41595 whole entry): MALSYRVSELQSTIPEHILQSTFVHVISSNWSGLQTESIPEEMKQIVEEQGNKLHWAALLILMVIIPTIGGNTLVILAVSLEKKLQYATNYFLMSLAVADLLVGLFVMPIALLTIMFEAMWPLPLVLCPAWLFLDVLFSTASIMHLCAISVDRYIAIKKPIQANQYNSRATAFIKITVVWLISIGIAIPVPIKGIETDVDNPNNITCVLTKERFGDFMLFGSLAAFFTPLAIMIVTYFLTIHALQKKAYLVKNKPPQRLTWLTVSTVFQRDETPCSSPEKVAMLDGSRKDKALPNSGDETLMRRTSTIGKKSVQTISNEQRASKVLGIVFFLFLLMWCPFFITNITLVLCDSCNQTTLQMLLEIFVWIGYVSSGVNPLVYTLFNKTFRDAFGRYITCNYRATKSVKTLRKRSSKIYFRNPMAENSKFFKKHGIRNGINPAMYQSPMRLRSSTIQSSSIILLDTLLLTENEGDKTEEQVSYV
T2 sequence (P32305 whole entry): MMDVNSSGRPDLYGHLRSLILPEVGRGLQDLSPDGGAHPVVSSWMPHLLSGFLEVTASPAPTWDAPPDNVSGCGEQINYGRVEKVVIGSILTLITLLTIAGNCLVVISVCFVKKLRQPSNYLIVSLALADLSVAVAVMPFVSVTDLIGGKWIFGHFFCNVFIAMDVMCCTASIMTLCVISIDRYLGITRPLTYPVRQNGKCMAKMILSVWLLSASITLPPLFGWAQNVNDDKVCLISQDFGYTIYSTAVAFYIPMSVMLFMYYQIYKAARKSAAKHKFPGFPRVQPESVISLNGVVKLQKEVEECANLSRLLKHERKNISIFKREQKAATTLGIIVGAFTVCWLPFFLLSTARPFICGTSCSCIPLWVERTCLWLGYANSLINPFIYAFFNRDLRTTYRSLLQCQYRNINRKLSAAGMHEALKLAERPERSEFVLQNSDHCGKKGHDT
Description for 5-HT2A receptor: The affinity of the compounds for the rat 5-HT2A receptor was evaluated by competitive radioligand binding assay using [^3H]ketanserine as the radioligand. The assay was performed on membranes from rat cortex as previously described (Schotte, A. et al., Psychopharmacology (1996) 124: 57-73). Briefly, brain tissue (rat cortex) was homogenized in 20 volumes per wet weight tissue of Tris-HCl buffer (50 mM, pH 7.4). The total membrane fraction was collected by centrifugation and washed by subsequent centrifugation runs (25 min at 25,000 g at 4° C.). Membranes were re-suspended in Tris-HCl buffer (50 mM, pH 7.4) containing 1 nM [^3H]ketanserin. Non-specific binding was estimated in the presence of 10 μM risperidone.

Turning to `c1ccc(Cn2nc(-c3cccs3)c3c2CCNCC3)cc1` [Example 104, 1-Benzyl-3-thiophen-2-yl-1,4,5,6,7,8-hexahydro-1,2,6-triaza-azulene], the Ki in assay [1] was found to be 52 nM; in assay [2], 360 nM; on 5-HT2A receptor it was 80 nM; on rat 5-HT7a receptor it was 9 nM.

Take `CC(C)Cn1nc2c(c1-c1ccc(Cl)cc1)CCNCC2` [Example 131, 3-(4-Chloro-phenyl)-2-isobutyl-2,4,5,6,7,8-hexahydro-1,2,6-triaza-azulene]: the inhibition constant Ki in assay [1] turned out to be 4.2 nM; in assay [2], 50 nM; on 5-HT2A receptor, 7 nM; on rat 5-HT7a receptor it was 120 nM.

Regarding `c1ccc(Cn2nc3c(c2-c2ccccc2)CCNCC3)cc1` [Example 133, 2-Benzyl-3-phenyl-2,4,5,6,7,8-hexahydro-1,2,6-triaza-azulene], the Ki was 3.5 nM in assay [1], 10 nM in assay [2], 2.3 nM at 5-HT2A receptor and 125 nM at rat 5-HT7a receptor.

For `Oc1ccc(Cn2nc(-c3ccc(Cl)cc3)c3c2CCNCC3)cc1F` [Example 160, 4-[3-(4-Chloro-phenyl)-5,6,7,8-tetrahydro-4H-1,2,6-triaza-azulen-1-ylmethyl]-2-fluoro-phenol], the inhibitory constant (Ki) in assay [1] turned out to be 350 nM; in assay [2] it was 3500 nM; at 5-HT2A receptor it was 300 nM; on rat 5-HT7a receptor it was 7 nM.

Turning to `CN1CCc2c(-c3ccc(Cl)cc3)nn(Cc3ccccc3)c2CC1` [Example 165, 1-Benzyl-3-(4-chloro-phenyl)-6-methyl-1,4,5,6,7,8-hexahydro-1,2,6-triaza-azulene], the inhibition constant (Ki) in assay [1] was found to be 310 nM; in assay [2], 180 nM; at 5-HT2A receptor, 100 nM; on rat 5-HT7a receptor, 4 nM.

As to `CCN1CCc2c(-c3ccc(Cl)cc3)nn(Cc3ccccc3)c2CC1` [Example 166, 1-Benzyl-3-(4-chloro-phenyl)-6-ethyl-1,4,5,6,7,8-hexahydro-1,2,6-triaza-azulene], the Ki in assay [1] was 560 nM; in assay [2] it was 590 nM; at 5-HT2A receptor, 80 nM; at rat 5-HT7a receptor, 8 nM.

For `c1ccc(-c2c3c(nn2C2CCCCC2)CCNCC3)cc1` [Example 177, 2-Cyclohexyl-3-phenyl-2,4,5,6,7,8-hexahydro-1,2,6-triaza-azulene], the Ki turned out to be 7 nM in assay [1], 110 nM in assay [2], 7 nM at 5-HT2A receptor and 80 nM on rat 5-HT7a receptor.

Consider `c1ccc(-c2c3c(nn2C2CCCC2)CCNCC3)cc1` [Example 180, 2-Cyclopentyl-3-phenyl-2,4,5,6,7,8-hexahydro-1,2,6-triaza-azulene], for which the inhibition constant (Ki) turned out to be 1.4 nM in assay [1], 12 nM in assay [2], 1.5 nM at 5-HT2A receptor and 10 nM on rat 5-HT7a receptor.

Take `Clc1ccc(-c2c3c(nn2C2CCCC2)CCNCC3)cc1` [Example 181, 3-(4-Chloro-phenyl)-2-cyclopentyl-2,4,5,6,7,8-hexahydro-1,2,6-triaza-azulene]: the inhibition constant (Ki) in assay [1] worked out at 1.8 nM; in assay [2], 11 nM; at 5-HT2A receptor it was 1.5 nM; at rat 5-HT7a receptor, 37 nM.

Consider `Fc1ccc(-c2c3c(nn2C2CCCC2)CCNCC3)cc1` [Example 182, 2-Cyclopentyl-3-(4-fluoro-phenyl)-2,4,5,6,7,8-hexahydro-1,2,6-triaza-azulene], for which the Ki in assay [1] was 1.4 nM; in assay [2] it was 18 nM; on 5-HT2A receptor, 0.74 nM; on rat 5-HT7a receptor, 90 nM.

`CCC(CC)n1nc2c(c1-c1cccc(F)c1)CCNCC2` [Example 183, 2-(1-Ethyl-propyl)-3-(3-fluoro-phenyl)-2,4,5,6,7,8-hexahydro-1,2,6-triaza-azulene]: the Ki in assay [1] was determined as 54 nM; in assay [2] it was 70 nM; on 5-HT2A receptor, 7 nM; at rat 5-HT7a receptor, 240 nM.

Consider `CCC(CC)n1nc2c(c1-c1ccc(F)cc1)CCNCC2` [Example 184, 2-(1-Ethyl-propyl)-3-(4-fluoro-phenyl)-2,4,5,6,7,8-hexahydro-1,2,6-triaza-azulene], for which the inhibition constant Ki in assay [1] worked out at 17 nM; in assay [2] it was 15 nM; on 5-HT2A receptor, 1 nM; at rat 5-HT7a receptor, 120 nM.

Turning to `CCC(CC)n1nc2c(c1-c1ccccc1)CCNCC2` [Example 186, 2-(1-Ethyl-propyl)-3-phenyl-2,4,5,6,7,8-hexahydro-1,2,6-triaza-azulene], the Ki in assay [1] was 24 nM; in assay [2] it was 20 nM; at 5-HT2A receptor it was 1 nM; at rat 5-HT7a receptor, 61 nM.

As for `CC(C)n1nc2c(c1-c1ccc(F)cc1)CCNCC2` [Example 190, 3-(4-Fluoro-phenyl)-2-isopropyl-2,4,5,6,7,8-hexahydro-1,2,6-triaza-azulene], the Ki stood at 22 nM in assay [1], 51 nM in assay [2], 10 nM on 5-HT2A receptor and 16 nM on rat 5-HT7a receptor.

On to `c1cc(-c2c3c(nn2C2CCCC2)CCNCC3)cs1` [Example 192, 2-Cyclopentyl-3-thiophen-3-yl-2,4,5,6,7,8-hexahydro-1,2,6-triaza-azulene], for which the Ki in assay [1] was found to be 0.9 nM; in assay [2], 15 nM; at 5-HT2A receptor, 2.5 nM; at rat 5-HT7a receptor, 20 nM.

Regarding `Cc1ccc(-c2c3c(nn2C(C)C)CCNCC3)cc1` [Example 209, 2-Isopropyl-3-p-tolyl-2,4,5,6,7,8-hexahydro-1,2,6-triaza-azulene], the inhibition constant (Ki) was 1.4 nM in assay [1], 12 nM in assay [2] (setting [3]), 1.1 nM at 5-HT2A receptor and 6 nM at rat 5-HT7a receptor.

Regarding `CCc1ccc(-c2c3c(nn2C(C)C)CCNCC3)cc1` [Example 210, 3-(4-Ethyl-phenyl)-2-isopropyl-2,4,5,6,7,8-hexahydro-1,2,6-triaza-azulene], the Ki in assay [1] worked out at 0.75 nM; in assay [2], 20 nM; on 5-HT2A receptor it was 2 nM; at rat 5-HT7a receptor it was 7 nM.

Regarding `CC(C)n1nc2c(c1-c1ccc(Cl)cc1)CCNCC2` [Example 211, 3-(4-Chloro-phenyl)-2-isopropyl-2,4,5,6,7,8-hexahydro-1,2,6-triaza-azulene], the inhibitory constant (Ki) was determined as 0.5 nM in assay [1], 18 nM in assay [2] (setting [3]), 5 nM on 5-HT2A receptor and 8.5 nM on rat 5-HT7a receptor.

Turning to `CC(C)n1nc2c(c1-c1ccc(C#N)cc1)CCNCC2` [Example 212, 4-(2-Isopropyl-2,4,5,6,7,8-hexahydro-1,2,6-triaza-azulen-3-yl)-benzonitrile], the inhibitory constant (Ki) in assay [1] (read-out: Ki 5-HT2B, h5-HT2B in CHO membranes, [3H]mesulergine) is 12 nM; in assay [2] it was 425 nM; on 5-HT2A receptor it was 25 nM; on rat 5-HT7a receptor, 93 nM.

With `CC(C)n1nc2c(c1-c1ccc(C(F)(F)F)cc1)CCNCC2` [Example 213, 2-Isopropyl-3-(4-trifluoromethyl-phenyl)-2,4,5,6,7,8-hexahydro-1,2,6-triaza-azulene], the Ki in assay [1] came out at 4.7 nM; in assay [2] (setting [3]), 80 nM; on 5-HT2A receptor, 7.5 nM; at rat 5-HT7a receptor, 12 nM.

Turning to `CC(C)(C)n1nc2c(c1-c1ccc(F)cc1)CCNCC2` [Example 216, 2-tert-Butyl-3-(4-fluoro-phenyl)-2,4,5,6,7,8-hexahydro-1,2,6-triaza-azulene], the inhibition constant Ki in assay [1] came out at 20 nM; in assay [2], 17 nM; on 5-HT2A receptor, 6 nM; at rat 5-HT7a receptor, 70 nM.

As to `Cc1ccc(-c2c3c(nn2C2CCCC2)CCNCC3)cc1` [Example 217, 2-Cyclopentyl-3-p-tolyl-2,4,5,6,7,8-hexahydro-1,2,6-triaza-azulene], the inhibition constant (Ki) in assay [1] is 0.65 nM; in assay [2], 10 nM; at 5-HT2A receptor it was 1 nM; on rat 5-HT7a receptor, 25 nM.
